The subject of experiment [1] is glycerol-3-phosphate dehydrogenase (G3PDH). The experiment in a line: G3PDH activity, crude mitochondrial fraction, DCIP reduction. Type of experiment: biochemical, Plasmodium falciparum. The method, then:
(§1) A synchronized parasite culture was grown for 64 h and a crude mitochondrial fraction was prepared from trophozoite-stage cells (as confirmed by Giemsa staining). Infected red blood cells were collected by centrifugation at 800× g for 5 min at 4 °C and incubated for 5 min at room temperature with 40 mL of 0.075% (w/v) saponin in AIM buffer (120 mM KCl, 20 mM NaCl, 10 mM PIPES (1,4-piperazinediethanesulfonic acid) buffer [pH 6.7], 1 mM MgCl2, 5 mM glucose). Released parasites were collected by centrifugation at 2780× g for 7 min at 4 °C and washed three times with AIM buffer. […]
(§2) Complex II, DHODH, MQO, NDH2, G3PDH, and dihydroorotate-cytochrome c (DHO-cyt c) reductase activities were measured, as described previously, using a V-660 spectrophotometer (JASCO; Tokyo, Japan). Briefly, complex II activity was measured at 25 °C in a 1 mL reaction mixture containing 45 μM 2,6-dichlorophenolidophenol (DCIP), 100 μM ubiquinone-2 (UQ2), and 2 mM KCN in 50 mM potassium phosphate buffer, pH 8.0. DHODH, MQO, and G3PDH activities were measured at 25 °C in 1 mL of the reaction mixture containing 45 μM DCIP, 100 μM UQ2, and 2 mM KCN in 30 mM Tris-HCl buffer, pH 8.0. […] NDH2 activity was measured at 25 °C in 1 mL of the reaction mixture containing 100 µM UQ1 and 2 mM KCN in 50 mM potassium phosphate buffer, pH 8.0. […]

The test system of experiment [2] is malate:quinone oxidoreductase (MQO). The experiment in a line: MQO activity, crude mitochondrial fraction, DCIP reduction. It is filed as biochemical, Plasmodium falciparum. The method, then:
as §1, §2

The subject of experiment [3] is Dd2_DDD (eEF2-Y186N mutation). Description: Growth inhibition of Dd2_DDD (DDD107498-resistant). It is filed as cell-based. Particulars: Plasmodium falciparum, read-out: Growth inhibition EC50, DDD. The method, then:
(§3) P. falciparum 3D7-yDHODH was prepared and maintained as described previously. P. falciparum Dd2, and Dd2-derived mutant strains were kindly provided by David A. Fidock, and maintained at Nagasaki University essentially as described in reference, except without supplementation with WR99210.
(§4) Synchronized ring-form parasites (0.3% parasitemia) were prepared in complete medium containing different concentration of various compounds (at a fixed final DMSO concentration of 0.1% (v/v)) and distributed to 96-well plates at 100 μL/well. After 72 h of incubation, parasite growth was monitored by the previously described lactate dehydrogenase (PfLDH)-based assay method; plates were read using a SpectraMax® Paradigm spectrophotometer (Molecular Devices, Inc.; San Jose, CA, USA). EC50 values were calculated using Prism® ver.6.01 (GraphPad; San Diego, CA, USA). Values are presented as the means of three independent experiments.

Experiment [4] deals with T1, dihydroorotate dehydrogenase (DHODH) (Plasmodium falciparum, UniProt Q08210).
T1 construct: used as crude mitochondrial fraction for all enzymatic assays; endogenous in cells; host or cells: P. falciparum 3D7 trophozoite-stage parasites, crude mitochondrial fraction
T1 sequence (Q08210 24-569): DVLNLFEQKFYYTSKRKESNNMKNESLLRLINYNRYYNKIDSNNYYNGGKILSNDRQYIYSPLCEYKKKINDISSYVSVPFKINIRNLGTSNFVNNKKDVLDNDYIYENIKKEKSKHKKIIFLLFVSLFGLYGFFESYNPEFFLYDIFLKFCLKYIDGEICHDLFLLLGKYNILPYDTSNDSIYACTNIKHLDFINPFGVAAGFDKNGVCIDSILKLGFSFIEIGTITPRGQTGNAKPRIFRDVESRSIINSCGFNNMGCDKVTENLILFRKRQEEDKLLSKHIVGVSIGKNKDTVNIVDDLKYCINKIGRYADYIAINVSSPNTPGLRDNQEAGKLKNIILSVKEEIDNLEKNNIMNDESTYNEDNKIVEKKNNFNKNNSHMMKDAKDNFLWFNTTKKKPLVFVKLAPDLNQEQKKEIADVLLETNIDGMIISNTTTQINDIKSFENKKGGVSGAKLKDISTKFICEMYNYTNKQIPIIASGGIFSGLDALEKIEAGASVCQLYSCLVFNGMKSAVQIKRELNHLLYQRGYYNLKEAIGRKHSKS
The experiment in a line: DHODH activity, crude mitochondrial fraction, DCIP reduction. Type of experiment: biochemical. The procedure:
as §1, with “buffer. P. falciparum was suspended in MSE buffer [225 mM mannitol, 75 mM sucrose, 0.1 mM ethylenediaminetetraacetic acid (EDTA), 3 mM Tris-HCl buffer, pH 7.4] containing 1 mM phenylmethylsulphonyl fluoride, and disrupted by nitrogen cavitation at 1200 psi using a 4639 Cell Disruption Bomb (Parr Instrument Company; Moline, IL, USA). The unbroken cells and cell debris were removed by centrifugation at 800× g for 5 min at 4 °C. The supernatant was centrifuged at 5000× g for 20 min at 4 °C.” for “buffer.”
Complex II, DHODH, MQO, NDH2, G3PDH, and dihydroorotate-cytochrome c (DHO-cyt c) reductase activities were measured, as described previously, using a V-660 spectrophotometer (JASCO; Tokyo, Japan). Briefly, complex II activity was measured at 25 °C in a 1 mL reaction mixture containing 45 μM 2,6-dichlorophenolidophenol (DCIP), 100 μM ubiquinone-2 (UQ2), and 2 mM KCN in 50 mM potassium phosphate buffer, pH 8.0. DHODH, MQO, and G3PDH activities were measured at 25 °C in 1 mL of the reaction mixture containing 45 μM DCIP, 100 μM UQ2, and 2 mM KCN in 30 mM Tris-HCl buffer, pH 8.0. Complex II, DHODH, MQO, and G3PDH activities were measured by monitoring the change in absorbance at 600 nm (reflecting DCIP reduction) after the reaction was initiated by adding 10 mM succinate, 500 μM dihydroorotate, 10 mM malate, or 500 μM glycerol-3-phosphate, respectively. NDH2 activity was measured at 25 °C in 1 mL of the reaction mixture containing 100 µM UQ1 and 2 mM KCN in 50 mM potassium phosphate buffer, pH 8.0. […]

Experiment [5] deals with P. falciparum complex III. Description: DHO-cytochrome c reductase activity (DHODH coupled to complex III). It is filed as biochemical. The settings on record: ratio mammalian / P. falciparum IC50. The method, then:
(§5) A synchronized parasite culture was grown for 64 h and a crude mitochondrial fraction was prepared from trophozoite-stage cells (as confirmed by Giemsa staining). Infected red blood cells were collected by centrifugation at 800× g for 5 min at 4 °C and incubated for 5 min at room temperature with 40 mL of 0.075% (w/v) saponin in AIM buffer (120 mM KCl, 20 mM NaCl, 10 mM PIPES (1,4-piperazinediethanesulfonic acid) buffer [pH 6.7], 1 mM MgCl2, 5 mM glucose). Released parasites were collected by centrifugation at 2780× g for 7 min at 4 °C and washed three times with AIM buffer. P. falciparum was suspended in MSE buffer [225 mM mannitol, 75 mM sucrose, 0.1 mM ethylenediaminetetraacetic acid (EDTA), 3 mM Tris-HCl buffer, pH 7.4] containing 1 mM phenylmethylsulphonyl fluoride, and disrupted by nitrogen cavitation at 1200 psi using a 4639 Cell Disruption Bomb (Parr Instrument Company; Moline, IL, USA). The unbroken cells and cell debris were removed by centrifugation at 800× g for 5 min at 4 °C. The supernatant was centrifuged at 5000× g for 20 min at 4 °C. The resulting pellet was suspended in 200–400 μL MSE buffer and used as crude mitochondrial fraction for all enzymatic assays, as described previously.
(§6) DHO-cyt c activity was measured at 25 °C in 1 mL of the reaction mixture containing 20 μM cytochrome c and 2 mM KCN in 30 mM Tris-HCl buffer, pH 8.0. The reduction of cytochrome c was monitored at 550 nm after initiation of the reaction by addition of 500 μM dihydroorotate. Various concentrations of siccanin (formulated in DMSO) were added to the reaction mixtures before the initiation of the reactions. In all assays, the final concentration of DMSO was fixed at 0.1% (v/v). IC50 values were calculated using Prism® ver.6.01.

In experiment [6] the target is T2, P. falciparum complex III (Plasmodium falciparum, UniProt Q02768).
T2 construct: used as crude mitochondrial fraction for all enzymatic assays; endogenous in cells; host or cells: P. falciparum 3D7 trophozoite-stage parasites, crude mitochondrial fraction
T2 sequence (Q02768 whole entry, one chain of several): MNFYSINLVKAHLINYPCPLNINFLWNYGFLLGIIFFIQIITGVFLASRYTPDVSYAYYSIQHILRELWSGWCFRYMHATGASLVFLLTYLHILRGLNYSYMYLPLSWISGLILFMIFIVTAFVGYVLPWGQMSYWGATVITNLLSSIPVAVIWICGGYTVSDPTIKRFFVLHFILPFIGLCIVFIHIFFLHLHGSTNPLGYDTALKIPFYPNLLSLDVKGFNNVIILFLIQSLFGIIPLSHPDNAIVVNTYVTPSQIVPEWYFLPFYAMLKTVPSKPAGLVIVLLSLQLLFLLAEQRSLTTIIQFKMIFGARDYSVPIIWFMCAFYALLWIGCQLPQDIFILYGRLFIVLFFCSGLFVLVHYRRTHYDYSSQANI
The description is as above. It is filed as biochemical. The method, then: as §5, §6

The test system of experiment [7] is Dd2 and drug-resistant panel strains. Description: Growth inhibition across Dd2 and drug-resistant panel strains. Type of experiment: cell-based. Particulars: Plasmodium falciparum, DD2, read-out: EC50s for growth inhibition, range over strains. The procedure:
as §3, §4

The term IC50 denotes the point on the concentration scale where inhibition reaches its midpoint.

Take `Cc1cc(O)c2c(c1)O[C@@]1(C)CC[C@H]3C(C)(C)CCC[C@]34CO[C@@H]2[C@H]41` [Siccanin]: in experiment [1] (10 µM), the “Effect on G3PDH activity” value is on record as “weakly inhibited”. Moreover, the “Relative residual activity of G3PDH” value in experiment [1] (siccanin 10 μM) is given as 72.5 ± 4.0%. For the same compound, in experiment [2] (10 µM), the “Effect on MQO activity” value is given as “did not inhibit”. Moreover, the “Relative residual activity of MQO” value in experiment [2] (siccanin 10 μM) was 109.2 ± 2.0%. For the same compound, the EC50 in experiment [3] is 13.1 µM; in experiment [7] it was 12.4 to 18.7 µM. The “Effect on DHODH activity” value in experiment [4] (10 µM) is on record as “did not inhibit”; in experiment [4] (60 μM), “does not inhibit”. For the same compound, the remaining activity at 10 µM in experiment [4] (siccanin 10 μM, read-out: Relative residual activity of DHODH) is 101 ± 8.1%. In addition, in experiment [5], the “Selectivity, Complex III” value was more than 60. For the same compound, the “Effect on DHO-cyt c activity” value in experiment [6] (60 μM) is “completely inhibits”. Besides, in experiment [6] (P. falciparum crude mitochondrial fraction, read-out: Complex III (DHO-cyt c activity) IC50), the IC50 came out at 8.39 µM.

Values taken from article PMC9319939, “Siccanin Is a Dual-Target Inhibitor of Plasmodium falciparum Mitochondrial Complex II and Complex III” (Pharmaceuticals, 2022).
